From ChEMBL document CHEMBL3885861, “Open TG-GATES”

Species on record: Rattus norvegicus
Test: Open TG-GATES - Regimen: Single
Type: toxicity, organism-based, Sprague-Dawley
Parameters: regimen Single, gender Male, age 6 weeks
Conditions: in vivo, po, 20 mg/kg, route gavage, dose level High; for KIDNEY_L / KIDNEY_R / KIDNEY_TOTAL: tissue Kidney; for LIVER: tissue Liver; for ALP / ALT / AST / BUN / CRE / Ca / Cl / DBIL / GLC / IP / K / LDH / Na / PL / RALB / TBIL / TC / TG / TP / gamma-GTP: tissue Plasma

OCCN1CCN(CCCN2c3ccccc3Sc3ccc(C(F)(F)F)cc32)CC1 [FLUPHENAZINE]
TERMINAL_BW (3 h): 197.6 g | APTT (3 h, tissue Blood): 16.7 s | Bas (3 h, tissue Blood): 0% | Eos (3 h, tissue Blood): 0.8% | Fbg (3 h, tissue Blood): 205.4 mg/dL | Hb (3 h, tissue Blood): 12.9 g/dL | Lym (3 h, tissue Blood): 81.6% | MCH (3 h, tissue Blood): 21.4 pg | MCHC (3 h, tissue Blood): 33% | MCV (3 h, tissue Blood): 64.9 fL | Mono (3 h, tissue Blood): 4.4% | Neu (3 h, tissue Blood): 13.6% | PT (3 h, tissue Blood): 12.7 s | Plat (3 h, tissue Blood): 111.6 x10_4/uL | RBC (3 h, tissue Blood): 600.6 x10_4/ul | Ret (3 h, tissue Blood): 9.2% | WBC (3 h, tissue Blood): 64.5 x10_2/uL | KIDNEY_L (3 h): 0.9 g | KIDNEY_R (3 h): 0.9 g | KIDNEY_TOTAL (3 h): 1.8 g | LIVER (3 h): 9.2 g | ALP (3 h): 781.6 IU/L | ALT (3 h): 29.4 IU/L | AST (3 h): 58 IU/L | BUN (3 h): 10 mg/dL | CRE (3 h): 0.5 mg/dL | Ca (3 h): 10.7 mg/dL | Cl (3 h): 107.4 meq/L | DBIL (3 h): 0.006 mg/dL | GLC (3 h): 225.6 mg/dL | IP (3 h): 10.6 mg/dL | K (3 h): 4.3 meq/L | LDH (3 h): 145.2 IU/L | Na (3 h): 139 meq/L | PL (3 h): 132 mg/dL | RALB (3 h): 3.7 g/dL | TBIL (3 h): 0.3 mg/dL | TC (3 h): 74.6 mg/dL | TG (3 h): 33.8 mg/dL | TP (3 h): 5.3 g/dL | gamma-GTP (3 h): 1.6 IU/L | TERMINAL_BW (6 h): 194.7 g | APTT (6 h, tissue Blood): 16.3 s | Bas (6 h, tissue Blood): 0% | Eos (6 h, tissue Blood): 0.4% | Fbg (6 h, tissue Blood): 205.8 mg/dL | Hb (6 h, tissue Blood): 12.8 g/dL | Lym (6 h, tissue Blood): 79% | MCH (6 h, tissue Blood): 21.9 pg | MCHC (6 h, tissue Blood): 32.9% | MCV (6 h, tissue Blood): 66.4 fL | Mono (6 h, tissue Blood): 6.4% | Neu (6 h, tissue Blood): 14.6% | PT (6 h, tissue Blood): 12.3 s | Plat (6 h, tissue Blood): 100.1 x10_4/uL | RBC (6 h, tissue Blood): 587.4 x10_4/ul | Ret (6 h, tissue Blood): 7.7% | WBC (6 h, tissue Blood): 59.6 x10_2/uL | KIDNEY_L (6 h): 0.9 g | KIDNEY_R (6 h): 0.9 g | KIDNEY_TOTAL (6 h): 1.8 g | LIVER (6 h): 8.8 g | ALP (6 h): 839.8 IU/L | ALT (6 h): 32 IU/L | AST (6 h): 60.2 IU/L | BUN (6 h): 10.6 mg/dL | CRE (6 h): 0.5 mg/dL | Ca (6 h): 10 mg/dL | Cl (6 h): 107.4 meq/L | DBIL (6 h): 0.018 mg/dL | GLC (6 h): 215.2 mg/dL | IP (6 h): 9.9 mg/dL | K (6 h): 4.3 meq/L | LDH (6 h): 171.6 IU/L | Na (6 h): 138 meq/L | PL (6 h): 125.6 mg/dL | RALB (6 h): 3.5 g/dL | TBIL (6 h): 0.4 mg/dL | TC (6 h): 76 mg/dL | TG (6 h): 16.6 mg/dL | TP (6 h): 5.3 g/dL | gamma-GTP (6 h): 1.2 IU/L | TERMINAL_BW (9 h): 190.3 g | APTT (9 h, tissue Blood): 16.3 s | Bas (9 h, tissue Blood): 0% | Eos (9 h, tissue Blood): 0.2% | Fbg (9 h, tissue Blood): 214.8 mg/dL | Hb (9 h, tissue Blood): 12.7 g/dL | Lym (9 h, tissue Blood): 76.8% | MCH (9 h, tissue Blood): 21.3 pg | MCHC (9 h, tissue Blood): 33.1% | MCV (9 h, tissue Blood): 64.4 fL | Mono (9 h, tissue Blood): 6% | Neu (9 h, tissue Blood): 16.4% | PT (9 h, tissue Blood): 12.3 s | Plat (9 h, tissue Blood): 113.7 x10_4/uL | RBC (9 h, tissue Blood): 594 x10_4/ul | Ret (9 h, tissue Blood): 8.4% | WBC (9 h, tissue Blood): 72.7 x10_2/uL | KIDNEY_L (9 h): 0.9 g | KIDNEY_R (9 h): 0.9 g | KIDNEY_TOTAL (9 h): 1.8 g | LIVER (9 h): 7.8 g | ALP (9 h): 741.8 IU/L | ALT (9 h): 28.8 IU/L | AST (9 h): 56 IU/L | BUN (9 h): 9.6 mg/dL | CRE (9 h): 0.5 mg/dL | Ca (9 h): 10 mg/dL | Cl (9 h): 107 meq/L | DBIL (9 h): 0.03 mg/dL | GLC (9 h): 197 mg/dL | IP (9 h): 9.6 mg/dL | K (9 h): 4.2 meq/L | LDH (9 h): 157.8 IU/L | Na (9 h): 139.2 meq/L | PL (9 h): 135 mg/dL | RALB (9 h): 3.7 g/dL | TBIL (9 h): 0.3 mg/dL | TC (9 h): 89 mg/dL | TG (9 h): 11.2 mg/dL | TP (9 h): 5.3 g/dL | gamma-GTP (9 h): 1.2 IU/L | TERMINAL_BW (24 h): 176 g | APTT (24 h, tissue Blood): 16.6 s | Bas (24 h, tissue Blood): 0% | Eos (24 h, tissue Blood): 0.2% | Fbg (24 h, tissue Blood): 206.6 mg/dL | Hb (24 h, tissue Blood): 14.7 g/dL | Ht (24 h, tissue Blood): 44.3% | Lym (24 h, tissue Blood): 81.2% | MCH (24 h, tissue Blood): 21.5 pg | MCHC (24 h, tissue Blood): 33.2% | MCV (24 h, tissue Blood): 64.8 fL | Mono (24 h, tissue Blood): 7.6% | Neu (24 h, tissue Blood): 10.6% | PT (24 h, tissue Blood): 12.2 s | Plat (24 h, tissue Blood): 125.2 x10_4/uL | RBC (24 h, tissue Blood): 684 x10_4/ul | Ret (24 h, tissue Blood): 6.6% | WBC (24 h, tissue Blood): 78.6 x10_2/uL | KIDNEY_L (24 h): 0.9 g | KIDNEY_R (24 h): 0.9 g | KIDNEY_TOTAL (24 h): 1.8 g | LIVER (24 h): 7.5 g | ALP (24 h): 847.4 IU/L | ALT (24 h): 27.8 IU/L | AST (24 h): 69.6 IU/L | BUN (24 h): 23.8 mg/dL | CRE (24 h): 0.5 mg/dL | Ca (24 h): 10.5 mg/dL | Cl (24 h): 105.4 meq/L | DBIL (24 h): 0.012 mg/dL | GLC (24 h): 176 mg/dL | IP (24 h): 9 mg/dL | K (24 h): 4.9 meq/L | LDH (24 h): 171.6 IU/L | Na (24 h): 138.6 meq/L | PL (24 h): 138.8 mg/dL | RALB (24 h): 4.3 g/dL | TBIL (24 h): 0.3 mg/dL | TC (24 h): 87.6 mg/dL | TG (24 h): 44.6 mg/dL | TP (24 h): 6.1 g/dL | gamma-GTP (24 h): 1.2 IU/L
